# Source: US8097585B2, “Methods of treating inflammation by administration of heme oxygenase-1 and products of heme degradation” (priority 2002, dated 2012)
# Structures can show the parent of a compound that is named as a salt.
# Legend:
# [1] = tested on: neointimal formation in carotid arteries; assay: Carotid balloon injury model, neointimal formation; assay type: in vivo, Lewis Rats; conditions: 14 days
# Excerpt: Animals. Adult male Lewis Rats (LEW/CrlBR; Charles River Laboratories, Wilmington, Mass.) weighing 350-400 g were used in the balloon injury model. Animals were housed in accordance with the guidelines from the American Association for Laboratory Animal Care and research protocols were approved by the institutional animal care and use committee of the Beth Israel Deaconess Medical Center, Boston, Mass.
# Balloon Injury model. After the exposure of the left common carotid and the left external carotid arteries, a 2F Fogarty catheter (Edwards Lifesciences LLC, Irvine, Calif.) was introduced via the external carotid artery and was advanced into the left common carotid artery, inflated to 2 atmospheres of pressure and pulled back to the point of bifurcation, then deflated. This procedure was repeated three times.
# Experimental reagents and design. […]
# Histomorphometric analysis. […] Images were analyzed by manual segmentation, tracing intima and media in each section. Areas and diameters were calculated by digital imaging software (AxioVision™, Carl Zeiss, Jena, Germany) as number of pixels corresponding to those areas and diameters. […] 24 sections from each group were statistically analyzed with StatView® software version 5.0 using ANOVA.
# [2] = tested on: iNOS; assay: Real time RT-PCR of graft muscularis after SITx, iNOS; assay type: in vivo, LEW rats
# Protocol: Small Intestinal Transplantation. Orthotopic small intestinal transplantation (SITx) was performed in syngeneic Lewis rats. SITx with caval drainage was performed using a previously described procedure (Murase et al., in Handbook of Animal Models in Transplantation Research, Cramer et al., Eds. CRC Press, Boca Raton, Fla., pp. 203-213 (1994)). […] The graft was perfused via the aortic segment with 5 ml chilled Ringer's lactate solution, and the intestinal lumen was irrigated with 20 ml of cold saline solution containing 0.5% neomycin-sulfate (Sigma, St. Louis, Mo.). […]
# SYBR green real time RT-PCR. The effects of administration of biliverdin on transplant-induced pro-inflammatory and anti-inflammatory gene expression were assessed in muscularis extracts by RT-PCR Biliverdin ([…], i.p.) was administered to both the donor and recipient three hours preoperatively. […] Equal aliquots (5 μg) of total RNA from each sample were quantified by spectrophotometry (wavelength […]) and aliquoted at a concentration of 40 ng/μl. Peak mRNA expression was quantified in duplicate by SYBR Green two-step, real-time RT-PCR. […] Real-time PCR data were plotted as the ΔRn fluorescence signal versus the cycle number. […] Quantification of mRNA expression was normalized to GAPDH and calculated relative to control using the comparative CT method (Schmittgen et al., J. Biochem. Biophys. Methods 46(1-2):69-8, 2000). […]
compound,measurement,setting,value
"C=CC1=C(C)/C(=C/C2=NC(=C\c3[nH]c(/C=C4\NC(=O)C(C)=C4C=C)c(C)c3CCC(=O)O)/C(CCC(=O)O)=C2C)NC1=O [biliverdin, biliverdin dihydrochloride]",neointimal formation after balloon injury,"[1]; local pre-treatment, instilled into common carotid artery for one hour",significantly inhibits neointimal formation
same,neointimal formation after balloon injury,"[1]; systemic treatment, 50 μmol/kg i.p. at two time points",significantly inhibits neointimal formation
same,reduction of mean relative iNOS mRNA expression,"[2]; BV treated rats, graft muscularis",approximately 50%
same,mRNA expression of iNOS or COX-2,[2]; BV treatment of unoperated control animals,did not alter
